From article PMC8351955, “Targeting Mycobacterium tuberculosis response to environmental cues for the development of effective antitubercular drugs” (PLoS Biology, 2021)
Where two headings read alike, the source gives them in different places.

Tests used:
[1] = test system: CDC1551(rv2390c′::GFP) reporter Mtb strain, response to high [Cl−]; experiment: microbe, parasite or virus in culture; format: cell-based, Mycobacterium tuberculosis; settings: Mycobacterium tuberculosis, 144 h; for activity at 20 µM: read-out: rv2390c'::GFP validation assay NPA% at 20 µM compound
[2] = test system: CDC1551(rv1405c′::GFP) reporter Mtb strain; experiment: microbe, parasite or virus in culture; format: cell-based, Mycobacterium tuberculosis; settings: Mycobacterium tuberculosis; for activity at 10 µM: read-out: rv1405c'::GFP secondary assay NPA% at 10 µM compound; for activity at 20 µM: read-out: rv1405c'::GFP secondary assay NPA% at 20 µM compound
[3] = pH 6.4, […], DMSO positive control = 100%, read-out: Primary screen rv2390c'::GFP NPA%
[4] = 10 µM, pH 6.4, 250 mM NaCl, 6 days, read-out: rv2390c'::GFP validation assay NPA% at 10 µM compound

SMILES | activity at 10 µM [1, 3] [%] | activity at 10 µM [1, 4] [%] | activity at 20 µM ([1]; pH 6.4, 250 mM NaCl, 6 days) [%] | activity at 10 µM [2] [%] | activity at 20 µM [2] [%]
COc1ccc(NCc2ccc(OC)c(Br)c2)cn1 [RU-0270711, COC1=NC=C(NCC2=CC(Br)=C(OC)C=C2)C=C1] | 162 | 135 ± 4 | 292 ± 6.7 | 227 ± 8.7 | 603 ± 10.5
Cc1ccc(-n2nc(C)c3c(=O)[nH]c(C(F)(F)F)nc32)cc1 [RU-0271306, CC1=NN(C2=C1C(=O)NC(=N2)C(F)(F)F)C1=CC=C(C)C=C1] | 40.8 | 30.6 ± 2.4 | 36.6 ± 3.4 | 37.3 ± 1.3 | 11.5 ± 4.6
O=S(=O)(Nc1c(F)cccc1F)c1c(Cl)cccc1Cl [RU-0271471, FC1=CC=CC(F)=C1NS(=O)(=O)C1=C(Cl)C=CC=C1Cl] | 26 | 46.1 ± 5.6 | 25.7 ± 1.9 | 32.2 ± 2 | 13.8 ± 3.7
O=c1[nH]c(SCC2OCCc3ccccc32)nc2[nH]ncc12 (stereo not drawn) [RU-0271878, O=C1NC(SCC2OCCC3=C2C=CC=C3)=NC2=C1C=NN2] | 43.3 | 63.4 ± 5.5 | 24.3 ± 3.8 | 57.7 ± 7 | 24.9 ± 3.6
CC(NC(=O)C1Cc2cc(Cl)ccc2O1)c1ccc(F)c(F)c1 (stereo not drawn) [RU-0272361, CC(NC(=O)C1CC2=C(O1)C=CC(Cl)=C2)C1=CC(F)=C(F)C=C1] | 162 | 152 ± 9 | 215 ± 14 | 83.2 ± 14.8 | 107 ± 4.9
CC(NC(=O)C1Cc2ccccc2O1)c1ccc(Cl)s1 (stereo not drawn) [RU-0272776, CC(NC(=O)C1CC2=C(O1)C=CC=C2)C1=CC=C(Cl)S1] | 231 | 170 ± 3.6 | 192 ± 26.2 | 88.5 ± 5.6 | 105 ± 5.5
